According to patent US5106961A, “Erythromycin ring-contracted derivatives” (Eli Lilly and Company, priority 1989, dated 1992):
≈ marks a conversion by molar mass, not a printed value. Read-outs that look alike come from different tables or passages of the source.

How the values were obtained:
Format in all cases: cell-based
[1] = test system: Staphylococcus aureus X1.1; assay: Agar-dilution MIC, Staphylococcus aureus X1.1
Source text: (§1) The compounds of formulas 1 and 2 inhibit the growth of certain pathogenic bacteria, especially Gram-positive bacteria and Gram-negative […] such as Haemophilus influenzae.

[2] = test system: Staphylococcus aureus V41; assay: Agar-dilution MIC, Staphylococcus aureus V41; conditions: Staphylococcus aureus V41, penicillin-resistant strain, read-out: minimal inhibitory concentration (MIC)
Source text: as §1

[3] = test system: Staphylococcus epidermidis 270; assay: Agar-dilution MIC, Staphylococcus epidermidis 270; conditions: read-out: minimal inhibitory concentration (MIC)
Source text: as §1

[4] = test system: Staphylococcus epidermidis 222; assay: Agar-dilution MIC, Staphylococcus epidermidis 222; conditions: read-out: minimal inhibitory concentration (MIC)
Source text: as §1

[5] = test system: Streptococcus pyogenes C203; assay: Agar-dilution MIC, Streptococcus pyogenes C203; conditions: read-out: minimal inhibitory concentration (MIC)
Source text: as §1

[6] = test system: Streptococcus pneumoniae Park I; assay: Agar-dilution MIC, Streptococcus pneumoniae Park I; conditions: read-out: minimal inhibitory concentration (MIC)
Source text: as §1

[7] = test system: Streptococcus faecalis X66; assay: Agar-dilution MIC, Streptococcus faecalis X66; conditions: Enterococcus faecalis, read-out: minimal inhibitory concentration (MIC)
Source text: as §1

[8] = test system: Streptococcus faecalis 2041; assay: Agar-dilution MIC, Streptococcus faecalis 2041; conditions: Enterococcus faecalis, read-out: minimal inhibitory concentration (MIC)
Source text: as §1

[9] = test system: Haemophilus influenzae C.L.; assay: Agar-dilution MIC, Haemophilus influenzae C.L.; conditions: ampicillin-sensitive strain, read-out: minimal inhibitory concentration (MIC)
Source text: as §1

[10] = test system: Haemophilus influenzae 76; assay: Agar-dilution MIC, Haemophilus influenzae 76; conditions: Haemophilus influenzae 76, ampicillin-resistant strain, read-out: minimal inhibitory concentration (MIC)
Source text: as §1

[11] = Staphylococcus aureus X1.1, agar dilution, read-out: minimal inhibitory concentration (MIC)

CC[C@@H](O)[C@H](C)[C@@H]1OC(=O)[C@H](C)[C@@H](O[C@H]2C[C@@](C)(OC)[C@@H](O)[C@H](C)O2)[C@H](C)[C@@H](O[C@@H]2O[C@H](C)C[C@H](N(C)C)[C@H]2O)[C@@]2(C)CC(C)=C(O2)[C@@H]1C [Compound 3a]
MIC [1, 11]: 64 µg/mL (≈ 91.4 µM) | MIC [2]: > 128 µg/mL | MIC [3]: 64 µg/mL (≈ 91.4 µM) | MIC [4]: 64 µg/mL (≈ 91.4 µM) | MIC [5]: 64 µg/mL (≈ 91.4 µM) | MIC [6]: 64 µg/mL (≈ 91.4 µM) | MIC [7]: 64 µg/mL (≈ 91.4 µM) | MIC [8]: 64 µg/mL (≈ 91.4 µM) | MIC [9]: 128 µg/mL (≈ 183 µM) | MIC [10]: 128 µg/mL (≈ 183 µM)

CC[C@@H](O)[C@@](C)(O)[C@@H]1OC(=O)[C@H](C)[C@@H](O[C@H]2C[C@@](C)(OC)[C@@H](O)[C@H](C)O2)[C@H](C)[C@@H](O[C@@H]2O[C@H](C)C[C@H](N(C)C)[C@H]2O)[C@@]2(C)CC(C)=C(O2)[C@@H]1C [Compound 3]
MIC [1, 11]: > 128 µg/mL | MIC [2]: > 128 µg/mL | MIC [3]: > 128 µg/mL | MIC [4]: > 128 µg/mL | MIC [5]: 32 µg/mL (≈ 44.7 µM) | MIC [6]: 16 µg/mL (≈ 22.3 µM) | MIC [7]: 64 µg/mL (≈ 89.4 µM) | MIC [8]: > 128 µg/mL | MIC [9]: 32 µg/mL (≈ 44.7 µM) | MIC [10]: 32 µg/mL (≈ 44.7 µM)

CO[C@]1(C)C[C@H](O[C@H]2[C@H](C)[C@@H](O[C@@H]3O[C@H](C)C[C@H](N(C)C)[C@H]3O)[C@@](C)(CC(C)=O)OC(=O)[C@H](C)[C@H](C(C)=O)OC(=O)[C@@H]2C)O[C@@H](C)[C@@H]1O [Compound 8]
MIC [1, 11]: > 128 µg/mL | MIC [2]: > 128 µg/mL | MIC [3]: > 128 µg/mL | MIC [4]: > 128 µg/mL | MIC [5]: 128 µg/mL (≈ 186 µM) | MIC [6]: 32 µg/mL (≈ 46.5 µM) | MIC [7]: 64 µg/mL (≈ 93 µM) | MIC [8]: > 128 µg/mL | MIC [9]: 64 µg/mL (≈ 93 µM) | MIC [10]: 64 µg/mL (≈ 93 µM)

CC[C@@H](O)[C@@](C)(O)[C@@H]1OC(=O)[C@H](C)[C@@H](O[C@H]2C[C@@](C)(OC)[C@@H](O)[C@H](C)O2)[C@H](C)[C@@H](O[C@@H]2O[C@H](C)C[C@H](N(C)C)[C@H]2O)[C@@]2(C)CC(C)(O)C(O)(O2)[C@@H]1C (some centres unmarked) [Compound 6]
MIC ([1]; Staphylococcus aureus, X1.1, read-out: minimal inhibitory concentration (MIC)): 128 µg/mL (≈ 171 µM) | MIC [2]: > 128 µg/mL | MIC [3]: > 128 µg/mL | MIC [4]: 64 µg/mL (≈ 85.3 µM) | MIC [5]: 16 µg/mL (≈ 21.3 µM) | MIC [6]: 8 µg/mL (≈ 10.7 µM) | MIC [7]: 16 µg/mL (≈ 21.3 µM) | MIC [8]: 64 µg/mL (≈ 85.3 µM) | MIC [9]: 8 µg/mL (≈ 10.7 µM) | MIC [10]: 8 µg/mL (≈ 10.7 µM)

CO[C@]1(C)C[C@H](O[C@H]2[C@H](C)[C@@H](O[C@@H]3O[C@H](C)C[C@H](N(C)C)[C@H]3O)[C@@]3(C)CC(C)=C(O3)[C@H](C)[C@H](C(C)=O)OC(=O)[C@@H]2C)O[C@@H](C)[C@@H]1O [Compound 4]
MIC [1, 11]: > 128 µg/mL | MIC [2]: > 128 µg/mL | MIC [3]: > 128 µg/mL | MIC [4]: > 128 µg/mL | MIC [5]: 64 µg/mL (≈ 97.6 µM) | MIC [6]: 32 µg/mL (≈ 48.8 µM) | MIC [7]: 16 µg/mL (≈ 24.4 µM) | MIC [8]: 128 µg/mL (≈ 195 µM) | MIC [9]: 16 µg/mL (≈ 24.4 µM) | MIC [10]: 16 µg/mL (≈ 24.4 µM)
